Converted amounts (≈) assume the structure as drawn. The source made the active and inactive calls. The rule behind the calls is not given here.
Legend:
Bacillus subtilis = test: Antibacterial activity against Bacillus subtilis IITKSM1 assessed as reduction in bacterial growth measured after 18 to 24 hrs by broth microdilution method; assay type: functional; conditions: time 18-24 hrs
Klebsiella pneumoniae = test: Antibacterial activity against Klebsiella pneumoniae BAA 1705 assessed as reduction in bacterial growth measured after 18 to 24 hrs by broth microdilution method; assay type: functional; conditions: time 18-24 hrs
Pseudomonas aeruginosa = test: Antibacterial activity against Pseudomonas aeruginosa ATCC 27853 assessed as reduction in bacterial growth measured after 18 to 24 hrs by broth microdilution method; assay type: functional; conditions: time 18-24 hrs
Escherichia coli = test: Antibacterial activity against Escherichia coli ATCC 25922 assessed as reduction in bacterial growth measured after 18 to 24 hrs by broth microdilution method; assay type: functional; conditions: time 18-24 hrs
[1] = Solubility of the compound in distilled water; assay type: physicochemical; conditions: buffer
[2] = Solubility of the compound in DMSO/DMF; assay type: physicochemical
Staphylococcus aureus [3] = test: Antibacterial activity against methicillin-sensitive Staphylococcus aureus ATCC 29213 assessed as reduction in bacterial growth measured after 18 to 24 hrs by broth microdilution method; assay type: functional; conditions: time 18-24 hrs
Staphylococcus aureus [4] = test: Antibacterial activity against methicillin-resistant Staphylococcus aureus NRS 100 assessed as reduction in bacterial growth measured after 18 to 24 hrs by broth microdilution method; assay type: functional; conditions: time 18-24 hrs
Staphylococcus aureus [5] = test: Antibacterial activity against methicillin-resistant Staphylococcus aureus NRS 119 assessed as reduction in bacterial growth measured after 18 to 24 hrs by broth microdilution method; assay type: functional; conditions: time 18-24 hrs
Staphylococcus aureus [6] = test: Antibacterial activity against methicillin-resistant Staphylococcus aureus NRS 129 assessed as reduction in bacterial growth measured after 18 to 24 hrs by broth microdilution method; assay type: functional; conditions: time 18-24 hrs
Staphylococcus aureus [7] = test: Antibacterial activity against methicillin-resistant Staphylococcus aureus NRS 186 assessed as reduction in bacterial growth measured after 18 to 24 hrs by broth microdilution method; assay type: functional; conditions: time 18-24 hrs
Staphylococcus aureus [8] = test: Antibacterial activity against methicillin-resistant Staphylococcus aureus NRS 191 assessed as reduction in bacterial growth measured after 18 to 24 hrs by broth microdilution method; assay type: functional; conditions: time 18-24 hrs
Staphylococcus aureus [9] = test: Antibacterial activity against methicillin-resistant Staphylococcus aureus NRS 193 assessed as reduction in bacterial growth measured after 18 to 24 hrs by broth microdilution method; assay type: functional; conditions: time 18-24 hrs
Staphylococcus aureus [10] = test: Antibacterial activity against methicillin-resistant Staphylococcus aureus NRS 198 assessed as reduction in bacterial growth measured after 18 to 24 hrs by broth microdilution method; assay type: functional; conditions: time 18-24 hrs
Staphylococcus aureus [11] = test: Antibacterial activity against vacomycin-resistant Staphylococcus aureus VRS 1 assessed as reduction in bacterial growth measured after 18 to 24 hrs by broth microdilution method; assay type: functional; conditions: time 18-24 hrs
Staphylococcus aureus [12] = test: Antibacterial activity against vacomycin-resistant Staphylococcus aureus VRS 4 assessed as reduction in bacterial growth measured after 18 to 24 hrs by broth microdilution method; assay type: functional; conditions: time 18-24 hrs
[13] = Hemolytic activity in human Red blood cell at 32 ug/ml measured after 1 hrs by spectrophotometric analysis relative to control; assay type: toxicity, cell-based, Erythrocyte; conditions: red blood cells, at 32 µg/mL, read-out: Activity
Staphylococcus aureus [14] = test: Inhibition of biofilm in Staphylococcus aureus ATCC 29213 at 1 times MIC measured after 12 hrs by crystal violet staining based analysis relative to control; assay type: functional
Staphylococcus aureus [15] = test: Inhibition of biofilm in Staphylococcus aureus ATCC 29213 at 0.5 times MIC measured after 12 hrs by crystal violet staining based analysis relative to control; assay type: functional
Staphylococcus aureus [16] = test: Inhibition of biofilm in Staphylococcus aureus ATCC 29213 at 2 times MIC measured after 12 hrs by crystal violet staining based analysis relative to control; assay type: functional
Staphylococcus aureus [17] = test: Inhibition of biofilm in Staphylococcus aureus ATCC 29213 at 1 ug/ml measured after 12 hrs by crystal violet staining based analysis; assay type: functional, organism-based; conditions: dose 1.0 µg/ml
Staphylococcus aureus [18] = test: Antibiofilm activity in Staphylococcus aureus ATCC 29213 assessed as disruption of preformed biofilm at 40 times MIC measured after 24 hrs by crystal violet staining based assay relative to control; assay type: functional
Staphylococcus aureus [19] = test: Antibiofilm activity in Staphylococcus aureus ATCC 29213 assessed as disruption of preformed biofilm at 1 times MIC measured after 24 hrs by crystal violet staining based assay relative to control; assay type: functional
Staphylococcus aureus [20] = test: Antibiofilm activity in Staphylococcus aureus ATCC 29213 assessed as disruption of preformed biofilm at 5 times MIC measured after 24 hrs by crystal violet staining based assay relative to control; assay type: functional
Staphylococcus aureus [21] = test: Antibiofilm activity in Staphylococcus aureus ATCC 29213 assessed as disruption of preformed biofilm at 10 times MIC measured after 24 hrs by crystal violet staining based assay relative to control; assay type: functional
Staphylococcus aureus [22] = test: Bactericidal activity against Staphylococcus aureus ATCC 29213 at 4 to 8 time MIC measured after 8 hrs by time-kill assay; assay type: functional, organism-based
Staphylococcus aureus [23] = test: Bactericidal activity against Staphylococcus aureus ATCC 29213 at 4 to 8 time MIC measured within 60 mins by time-kill assay; assay type: functional, organism-based
Staphylococcus aureus [24] = test: Antibacterial activity against Staphylococcus aureus ATCC 29213 measured after 20 passages; assay type: functional, organism-based
Cell membrane [25] = test: Induction of cytoplasmic membrane depolarization in Staphylococcus aureus ATCC 29213 assessed as fold increase in fluorescence intensity at 10 times MIC measured after 30 min by DiSC3-5 dye based fluorescence method; assay type: subcellular
Cell membrane [26] = test: Disruption of cell membrane in Staphylococcus aureus ATCC 29213 assessed as increase in red fluorescence at 5 to 10 times MIC measured after 4 hrs by DAPI and PI staining based fluorescence microscopic analysis
Cell membrane [27] = test: Disruption of cell membrane in Staphylococcus aureus ATCC 29213 assessed as increase in PI uptake at 10 times MIC measured after 8 mins by fluorescence based microplate reader analysis
Staphylococcus aureus [28] = test: Antibacterial activity against Staphylococcus aureus ATCC 29213 infected in female BALB/c mouse skin infection model assessed as appearance of smooth dorsal skin at 10 times MIC pre-infected with bacteria followed by compound addition and measured after 24 hrs; assay type: functional, organism-based
Staphylococcus aureus [29] = test: Antibacterial activity against Staphylococcus aureus ATCC 29213 infected in female BALB/c mouse skin infection model assessed as reduction in skin lesions at 10 times MIC pre-infected with bacteria followed by compound addition and measured after 24 hrs; assay type: functional, organism-based
Staphylococcus aureus [30] = test: Antibacterial activity against Staphylococcus aureus ATCC 29213 infected in female BALB/c mouse skin infection model assessed as reduction of abscess in subcutaneous tissue at 10 times MIC pre-infected with bacteria followed by compound addition and measured after 24 hrs; assay type: functional, organism-based
Staphylococcus aureus [31] = test: Antibacterial activity against Staphylococcus aureus ATCC 29213 infected in female BALB/c mouse skin infection model assessed as reduction in bacterial load at 10 times MIC pre-infected with bacteria followed by compound addition and measured after 24 hrs relative to control; assay type: functional; parameters: scale not given: the % may be the effect or the level left
Staphylococcus aureus [32] = test: Antibacterial activity against Staphylococcus aureus ATCC 29213 infected in female BALB/c mouse skin infection model assessed as log reduction in bacterial load at 10 times MIC pre-infected with bacteria followed by compound addition and measured after 24 hrs; assay type: functional
[33] = Toxicity in female BALB/c mouse assessed as effect on spleen measured after 24 hrs by H and E staining based analysis; assay type: tissue-based; conditions: in vivo
[34] = Toxicity in female BALB/c mouse assessed as effect on lung measured after 24 hrs by H and E staining based analysis; assay type: tissue-based; conditions: in vivo
[35] = Drug distribution in female BALB/c mouse skin measured after 24 hrs; assay type: ADME, tissue-based, Skin of body; conditions: in vivo

With `O=C(O)c1cccc(C(=O)Nc2c(C(c3ccc(F)cc3)c3ccc(F)cc3)cc(Cl)cc2C(c2ccc(F)cc2)c2ccc(F)cc2)c1` as the compound, how does the MIC (Bacillus subtilis) read?
Its MIC is 1 µg/mL (≈ 1.47 µM).

And the MIC (Klebsiella pneumoniae)?
The MIC was > 64 µg/mL.

What about the MIC (Pseudomonas aeruginosa) of the same compound?
The MIC was > 64 µg/mL.

And the MIC (Escherichia coli)?
Its MIC is > 64 µg/mL.

What about the solubility [1] of the same compound?
The solubility was “Insoluble”.

What about the solubility [2] of the same compound?
The solubility was 570 mg/mL (≈ 838000 µM).

What about the MIC (Staphylococcus aureus [3]) of the same compound?
The MIC was 2 µg/mL (≈ 2.94 µM).

What about the MIC (Staphylococcus aureus [4]) of the same compound?
Its MIC is 2 µg/mL (≈ 2.94 µM).

What about the MIC (Staphylococcus aureus [5]) of the same compound?
Its MIC is 2 µg/mL (≈ 2.94 µM).

What about the MIC (Staphylococcus aureus [6]) of the same compound?
Its MIC is 2 µg/mL (≈ 2.94 µM).

What about the MIC (Staphylococcus aureus [7]) of the same compound?
The MIC was 2 µg/mL (≈ 2.94 µM).

What about the MIC (Staphylococcus aureus [8]) of the same compound?
Its MIC is 2 µg/mL (≈ 2.94 µM).

And the MIC (Staphylococcus aureus [9])?
Its MIC is 2 µg/mL (≈ 2.94 µM).

What about the MIC (Staphylococcus aureus [10]) of the same compound?
Its MIC is 2 µg/mL (≈ 2.94 µM).

What about the MIC (Staphylococcus aureus [11]) of the same compound?
Its MIC is 2 µg/mL (≈ 2.94 µM).

And the MIC (Staphylococcus aureus [12])?
The MIC was 2 µg/mL (≈ 2.94 µM).

And the hemolysis at 1 h, 32 ug/ml [13]?
Its hemolysis at 1 h, 32 ug/ml is 70%.

And the “inhibition (INH)” value (Staphylococcus aureus [14])?
The value was 91%.

And the “inhibition (INH)” value (Staphylococcus aureus [15])?
The value was >50%.

And the “inhibition (INH)” value (Staphylococcus aureus [16])?
The value was 95%.

What about the inhibition (Staphylococcus aureus [17]) of the same compound?
The inhibition was “Active”.

And the Activity (Staphylococcus aureus [18])?
The Activity was 31.47%.

And the Activity (Staphylococcus aureus [19])?
Its Activity is 7.29%.

What about the Activity (Staphylococcus aureus [20]) of the same compound?
Its Activity is 7.1%.

What about the Activity (Staphylococcus aureus [21]) of the same compound?
The Activity was 11.84%.

What about the Activity (Staphylococcus aureus [22]) of the same compound?
Its Activity is “Active”.

What about the Activity (Staphylococcus aureus [23]) of the same compound?
Its Activity is “Active”.

What about the Activity (Staphylococcus aureus [24]) of the same compound?
Its Activity is “Active”.

What about the fold change (FC) (Cell membrane [25]) of the same compound?
Its fold change (FC) is 4.

What about the Activity (Cell membrane [26]) of the same compound?
Its Activity is “Active”.

What about the Activity (Cell membrane [27]) of the same compound?
Its Activity is “Active”.

What about the Activity (Staphylococcus aureus [28]) of the same compound?
Its Activity is “Active”.

What about the Activity (Staphylococcus aureus [29]) of the same compound?
The Activity was “Active”.

What about the Activity (Staphylococcus aureus [30]) of the same compound?
The Activity was “Active”.

What about the Activity (Staphylococcus aureus [31]) of the same compound?
Its Activity is ~83%.

What about the Activity (Staphylococcus aureus [32]) of the same compound?
Its Activity is 0.8 log10CFU/ml.

What about the Activity [33] of the same compound?
Its Activity is “Non-toxic”.

What about the Activity [34] of the same compound?
The Activity was “Non-toxic”.

And the Drug uptake [35]?
The Drug uptake was 5.93 nmol/mg.

Reference: ChEMBL document CHEMBL6177993, “De Novo 3-(Phenylcarbamoyl) Benzoate Analogues: Efficacy against Multidrug-Resistant S. aureus and Elucidation of the Biodistribution Profile” (J Med Chem, 2025)
